Converted amounts (≈) assume the structure as drawn. The source made the active and inactive calls. No cut-off for these calls is given here.
What was measured:
Escherichia coli [1] = assay: Bactericidal activity against Escherichia coli MTCC 739 assessed as reduction in bacterial survival incubated for 24 hrs followed by transfer of microbial suspension to agar plates and measured at 24 hrs post transfer by agar well diffusion method; type: functional; settings: MTCC 739, 24 h
Micrococcus luteus [2] = assay: Bactericidal activity against Micrococcus luteus MTCC 2470 assessed as reduction in bacterial survival incubated for 24 hrs followed by transfer of microbial suspension to agar plates and measured at 24 hrs post transfer by agar well diffusion method; type: functional; settings: MTCC 2470, 24 h
Escherichia coli [3] = assay: Antibiofilm activity against Escherichia coli MTCC 739 assessed as inhibition of biofilm formation by crystal violet staining-based microtitre plate assay; type: functional, organism-based
Raoultella planticola [4] = assay: Antibacterial activity against Klebsiella planticola MTCC 530 assessed as reduction in bacterial growth incubated for 24 hrs by agar well diffusion method; type: functional; settings: MTCC 530, 24 h
Bacillus subtilis [5] = assay: Antibacterial activity against Bacillus subtilis MTCC 121 assessed as reduction in bacterial growth incubated for 24 hrs by agar well diffusion method; type: functional; settings: MTCC 121, 24 h
Staphylococcus aureus [6] = assay: Antibacterial activity against Staphylococcus aureus MLS-16 MTCC 2940 assessed as reduction in bacterial growth incubated for 24 hrs by agar well diffusion method; type: functional; settings: MLS-16 MTCC 2940, 24 h
Bacillus subtilis [7] = assay: Bactericidal activity against Bacillus subtilis MTCC 121 assessed as reduction in bacterial survival incubated for 24 hrs followed by transfer of microbial suspension to agar plates and measured at 24 hrs post transfer by agar well diffusion method; type: functional; settings: MTCC 121, 24 h
MRC5 = assay: Cytotoxicity against human MRC5 cells assessed as reduction in cell viability incubated for 48 hrs by MTT assay; type: cell-based; settings: MRC5, 48 h
Staphylococcus aureus [8] = assay: Antibiofilm activity against Staphylococcus aureus MTCC 96 assessed as disruption of biofilm matrix with individual cell lysis at bactericidal MBC incubated for 48 hrs in presence of Escherichia coli MTCC 739 by FE-SEM analysis; type: functional, organism-based
Staphylococcus aureus [9] = assay: Bactericidal activity against Staphylococcus aureus MTCC 96 assessed as reduction in bacterial survival incubated for 24 hrs followed by transfer of microbial suspension to agar plates and measured at 24 hrs post transfer by agar well diffusion method; type: functional; settings: MTCC 96, 24 h
Pseudomonas aeruginosa [10] = assay: Antibacterial activity against Pseudomonas aeruginosa MTCC 2453 assessed as reduction in bacterial growth incubated for 24 hrs by agar well diffusion method; type: functional; settings: MTCC 2453, 24 h
Escherichia coli [11] = assay: Antibiofilm activity against Escherichia coli MTCC 739 assessed as inhibition of biofilm formation incubated for 48 hrs in presence of Staphylococcus aureus MTCC 96 by FE-SEM analysis; type: functional, organism-based; settings: MTCC 739, 48 h
Staphylococcus aureus [12] = assay: Antibacterial activity against Staphylococcus aureus MTCC 96 assessed as reduction in bacterial growth incubated for 24 hrs by agar well diffusion method; type: functional; settings: MTCC 96, 24 h
Staphylococcus aureus [13] = assay: Antibiofilm activity against Staphylococcus aureus MTCC 96 assessed as inhibition of biofilm formation incubated for 48 hrs in presence of Escherichia coli MTCC 739 by FE-SEM analysis; type: functional, organism-based; settings: MTCC 96, 48 h
Raoultella planticola [14] = assay: Bactericidal activity against Klebsiella planticola MTCC 530 assessed as reduction in bacterial survival incubated for 24 hrs followed by transfer of microbial suspension to agar plates and measured at 24 hrs post transfer by agar well diffusion method; type: functional; settings: MTCC 530, 24 h
Staphylococcus aureus [15] = assay: Bactericidal activity against Staphylococcus aureus MLS-16 MTCC 2940 assessed as reduction in bacterial survival incubated for 24 hrs followed by transfer of microbial suspension to agar plates and measured at 24 hrs post transfer by agar well diffusion method; type: functional; settings: MLS-16 MTCC 2940, 24 h
Staphylococcus aureus [16] = assay: Antibiofilm activity against Staphylococcus aureus MLS-16 MTCC 2940 assessed as inhibition of biofilm formation by crystal violet staining-based microtitre plate assay; type: functional, organism-based
Bacillus subtilis [17] = assay: Antibiofilm activity against Bacillus subtilis MTCC 121 assessed as inhibition of biofilm formation by crystal violet staining-based microtitre plate assay; type: functional, organism-based
Raoultella planticola [18] = assay: Antibiofilm activity against Klebsiella planticola MTCC 530 assessed as inhibition of biofilm formation by crystal violet staining-based microtitre plate assay; type: functional, organism-based
Micrococcus luteus [19] = assay: Antibacterial activity against Micrococcus luteus MTCC 2470 assessed as reduction in bacterial growth incubated for 24 hrs by agar well diffusion method; type: functional; settings: MTCC 2470, 24 h
Pseudomonas aeruginosa [20] = assay: Antibiofilm activity against Pseudomonas aeruginosa MTCC 2453 assessed as inhibition of biofilm formation by crystal violet staining-based microtitre plate assay; type: functional, organism-based
Staphylococcus aureus [21] = assay: Antibiofilm activity against Staphylococcus aureus MTCC 96 assessed as disruption and cell damage at bactericidal MBC incubated for 48 hrs by FE-SEM analysis; type: functional, organism-based
Escherichia coli [22] = assay: Antibacterial activity against Escherichia coli MTCC 739 assessed as reduction in bacterial growth incubated for 24 hrs by agar well diffusion method; type: functional; settings: MTCC 739, 24 h
Pseudomonas aeruginosa [23] = assay: Bactericidal activity against Pseudomonas aeruginosa MTCC 2453 assessed as reduction in bacterial survival incubated for 24 hrs followed by transfer of microbial suspension to agar plates and measured at 24 hrs post transfer by agar well diffusion method; type: functional; settings: MTCC 2453, 24 h
Escherichia coli [24] = assay: Antibiofilm activity against Escherichia coli MTCC 739 assessed as cell lysis with damaged membrane at bactericidal MBC incubated for 48 hrs by FE-SEM analysis; type: functional, organism-based
Escherichia coli [25] = assay: Antibiofilm activity against Escherichia coli MTCC 739 assessed as disruption of biofilm matrix with individual cell lysis at bactericidal MBC incubated for 48 hrs in presence of Staphylococcus aureus MTCC 96 by FE-SEM analysis; type: functional, organism-based
Candida albicans [26] = assay: Fungicidal activity against Candida albicans MTCC 3017 assessed as reduction in fungal survival incubated for 24 hrs followed by transfer of microbial suspension to agar plates and measured at 24 hrs post transfer by agar well diffusion method; type: functional; settings: MTCC 3017, 24 h
Micrococcus luteus [27] = assay: Antibiofilm activity against Micrococcus luteus MTCC 2470 assessed as inhibition of biofilm formation by crystal violet staining-based microtitre plate assay; type: functional, organism-based
Candida albicans [28] = assay: Antifungal activity against Candida albicans MTCC 3017 assessed as reduction in fungal growth incubated for 24 hrs by agar well diffusion method; type: functional; settings: MTCC 3017, 24 h
Staphylococcus aureus [29] = assay: Antibiofilm activity against Staphylococcus aureus MTCC 96 assessed as inhibition of biofilm formation by crystal violet staining-based microtitre plate assay; type: functional, organism-based

Question: For `O=C(c1cn(-c2ccc(Cl)cc2)nn1)c1c(-c2ccccc2)nc2sccn12`, which MBC (Escherichia coli [1]) is on record?
Answer: 3.9 µg/mL (≈ 9.61 µM)

Question: And the MBC (Micrococcus luteus [2])?
Answer: 7.8 µg/mL (≈ 19.2 µM)

Question: What about the IC50 (Escherichia coli [3]) of the same compound?
Answer: 10.3 µg/mL (≈ 25.4 µM)

Question: And the MIC (Raoultella planticola [4])?
Answer: 3.9 µg/mL (≈ 9.61 µM)

Question: What about the MIC (Bacillus subtilis [5]) of the same compound?
Answer: 3.9 µg/mL (≈ 9.61 µM)

Question: What about the MIC (Staphylococcus aureus [6]) of the same compound?
Answer: 1.9 µg/mL (≈ 4.68 µM)

Question: What about the MBC (Bacillus subtilis [7]) of the same compound?
Answer: 7.8 µg/mL (≈ 19.2 µM)

Question: What about the IC50 (MRC5) of the same compound?
Answer: 36.1 µg/mL (≈ 88.9 µM)

Question: And the Activity (Staphylococcus aureus [8])?
Answer: Active

Question: And the MBC (Staphylococcus aureus [9])?
Answer: 3.9 µg/mL (≈ 9.61 µM)

Question: And the MIC (Pseudomonas aeruginosa [10])?
Answer: 3.9 µg/mL (≈ 9.61 µM)

Question: And the IC50 (Escherichia coli [11])?
Answer: 14.3 µg/mL

Question: What about the MIC (Staphylococcus aureus [12]) of the same compound?
Answer: 1.9 µg/mL (≈ 4.68 µM)

Question: And the IC50 (Staphylococcus aureus [13])?
Answer: 14.3 µg/mL

Question: What about the MBC (Raoultella planticola [14]) of the same compound?
Answer: 7.8 µg/mL (≈ 19.2 µM)

Question: What about the MBC (Staphylococcus aureus [15]) of the same compound?
Answer: 3.9 µg/mL (≈ 9.61 µM)

Question: And the IC50 (Staphylococcus aureus [16])?
Answer: 10.6 µg/mL (≈ 26.2 µM)

Question: What about the IC50 (Bacillus subtilis [17]) of the same compound?
Answer: 11.4 µg/mL (≈ 28.1 µM)

Question: And the IC50 (Raoultella planticola [18])?
Answer: 14.6 µg/mL (≈ 36 µM)

Question: And the MIC (Micrococcus luteus [19])?
Answer: 3.9 µg/mL (≈ 9.61 µM)

Question: What about the IC50 (Pseudomonas aeruginosa [20]) of the same compound?
Answer: 14.2 µg/mL (≈ 35 µM)

Question: And the Activity (Staphylococcus aureus [21])?
Answer: Active

Question: What about the MIC (Escherichia coli [22]) of the same compound?
Answer: 1.9 µg/mL (≈ 4.68 µM)

Question: And the MBC (Pseudomonas aeruginosa [23])?
Answer: 7.8 µg/mL (≈ 19.2 µM)

Question: What about the Activity (Escherichia coli [24]) of the same compound?
Answer: Active

Question: And the Activity (Escherichia coli [25])?
Answer: Active

Question: What about the MFC (Candida albicans [26]) of the same compound?
Answer: 15.6 µg/mL (≈ 38.4 µM)

Question: What about the IC50 (Micrococcus luteus [27]) of the same compound?
Answer: 11.2 µg/mL (≈ 27.7 µM)

Question: And the MIC (Candida albicans [28])?
Answer: 7.8 µg/mL (≈ 19.2 µM)

Question: What about the IC50 (Staphylococcus aureus [29]) of the same compound?
Answer: 9.8 µg/mL (≈ 24.1 µM)

Question: Which MBC (Escherichia coli [1]) does the source give for `O=C(c1cn(-c2ccc(Cl)cc2)nn1)c1c(-c2ccc(Cl)cc2)nc2sccn12` here?
Answer: 7.8 µg/mL (≈ 17.7 µM)

Question: What about the MBC (Micrococcus luteus [2]) of the same compound?
Answer: 7.8 µg/mL (≈ 17.7 µM)

Question: And the IC50 (Escherichia coli [3])?
Answer: 14 µg/mL (≈ 31.8 µM)

Question: What about the MIC (Raoultella planticola [4]) of the same compound?
Answer: 3.9 µg/mL (≈ 8.86 µM)

Question: And the MIC (Bacillus subtilis [5])?
Answer: 3.9 µg/mL (≈ 8.86 µM)

Question: What about the MIC (Staphylococcus aureus [6]) of the same compound?
Answer: 7.8 µg/mL (≈ 17.7 µM)

Question: And the MBC (Bacillus subtilis [7])?
Answer: 7.8 µg/mL (≈ 17.7 µM)

Question: And the IC50 (MRC5)?
Answer: 24.2 µg/mL (≈ 55 µM)

Question: And the MBC (Staphylococcus aureus [9])?
Answer: 7.8 µg/mL (≈ 17.7 µM)

Question: And the MIC (Pseudomonas aeruginosa [10])?
Answer: 3.9 µg/mL (≈ 8.86 µM)

Question: And the MIC (Staphylococcus aureus [12])?
Answer: 3.9 µg/mL (≈ 8.86 µM)

Question: What about the MBC (Raoultella planticola [14]) of the same compound?
Answer: 7.8 µg/mL (≈ 17.7 µM)

Question: And the MBC (Staphylococcus aureus [15])?
Answer: 15.6 µg/mL (≈ 35.4 µM)

Question: And the IC50 (Staphylococcus aureus [16])?
Answer: 11.9 µg/mL (≈ 27 µM)

Question: What about the IC50 (Bacillus subtilis [17]) of the same compound?
Answer: 13.2 µg/mL (≈ 30 µM)

Question: And the IC50 (Raoultella planticola [18])?
Answer: 16.8 µg/mL (≈ 38.2 µM)

Question: And the MIC (Micrococcus luteus [19])?
Answer: 3.9 µg/mL (≈ 8.86 µM)

Question: And the IC50 (Pseudomonas aeruginosa [20])?
Answer: 19.3 µg/mL (≈ 43.8 µM)

Question: And the MIC (Escherichia coli [22])?
Answer: 3.9 µg/mL (≈ 8.86 µM)

Question: And the MBC (Pseudomonas aeruginosa [23])?
Answer: 7.8 µg/mL (≈ 17.7 µM)

Question: And the MFC (Candida albicans [26])?
Answer: 15.6 µg/mL (≈ 35.4 µM)

Question: What about the IC50 (Micrococcus luteus [27]) of the same compound?
Answer: 13.7 µg/mL (≈ 31.1 µM)

Question: And the MIC (Candida albicans [28])?
Answer: 7.8 µg/mL (≈ 17.7 µM)

Question: What about the IC50 (Staphylococcus aureus [29]) of the same compound?
Answer: 18.4 µg/mL (≈ 41.8 µM)

Question: What does the source list for `O=C(c1cn(-c2ccc(Br)cc2)nn1)c1c(-c2ccccc2)nc2sccn12`?
Answer: MBC (Escherichia coli [1]): 7.8 µg/mL (≈ 17.3 µM); MBC (Micrococcus luteus [2]): 15.6 µg/mL (≈ 34.6 µM); IC50 (Escherichia coli [3]): 20.2 µg/mL (≈ 44.9 µM); MIC (Raoultella planticola [4]): 3.9 µg/mL (≈ 8.66 µM); MIC (Bacillus subtilis [5]): 3.9 µg/mL (≈ 8.66 µM); MIC (Staphylococcus aureus [6]): 3.9 µg/mL (≈ 8.66 µM); MBC (Bacillus subtilis [7]): 7.8 µg/mL (≈ 17.3 µM); IC50 (MRC5): 28.1 µg/mL (≈ 62.4 µM); MBC (Staphylococcus aureus [9]): 7.8 µg/mL (≈ 17.3 µM); MIC (Pseudomonas aeruginosa [10]): 3.9 µg/mL (≈ 8.66 µM); MIC (Staphylococcus aureus [12]): 3.9 µg/mL (≈ 8.66 µM); MBC (Raoultella planticola [14]): 7.8 µg/mL (≈ 17.3 µM); MBC (Staphylococcus aureus [15]): 7.8 µg/mL (≈ 17.3 µM); IC50 (Staphylococcus aureus [16]): 14.4 µg/mL (≈ 32 µM); IC50 (Bacillus subtilis [17]): 16 µg/mL (≈ 35.5 µM); IC50 (Raoultella planticola [18]): 21.1 µg/mL (≈ 46.9 µM); MIC (Micrococcus luteus [19]): 7.8 µg/mL (≈ 17.3 µM); IC50 (Pseudomonas aeruginosa [20]): 20.2 µg/mL (≈ 44.9 µM); MIC (Escherichia coli [22]): 3.9 µg/mL (≈ 8.66 µM); MBC (Pseudomonas aeruginosa [23]): 7.8 µg/mL (≈ 17.3 µM); MFC (Candida albicans [26]): 15.6 µg/mL (≈ 34.6 µM); IC50 (Micrococcus luteus [27]): 13.9 µg/mL (≈ 30.9 µM); MIC (Candida albicans [28]): 7.8 µg/mL (≈ 17.3 µM); IC50 (Staphylococcus aureus [29]): 21.8 µg/mL (≈ 48.4 µM)
